Measurements as given in US9597326B2 (priority 2010, dated 2017).

Assays:
[1] = molecular target: human TLR7 (Homo sapiens (Human), UniProt Q9NYK1); type: cell-based; conditions: HEK293 reporter; relative to resiquimod set to 100%
[2] = tested on: cytokines (IFN-γ, IL-10, IL-12 p40, IL-1β, IL-5, IL-6, MCP-1, KC, TNF-α); type: in vivo, mice; conditions: IP; peak concentration over 24 h; FIG. 6

human TLR7, sequence (Q9NYK1 27-1049 limits assumed): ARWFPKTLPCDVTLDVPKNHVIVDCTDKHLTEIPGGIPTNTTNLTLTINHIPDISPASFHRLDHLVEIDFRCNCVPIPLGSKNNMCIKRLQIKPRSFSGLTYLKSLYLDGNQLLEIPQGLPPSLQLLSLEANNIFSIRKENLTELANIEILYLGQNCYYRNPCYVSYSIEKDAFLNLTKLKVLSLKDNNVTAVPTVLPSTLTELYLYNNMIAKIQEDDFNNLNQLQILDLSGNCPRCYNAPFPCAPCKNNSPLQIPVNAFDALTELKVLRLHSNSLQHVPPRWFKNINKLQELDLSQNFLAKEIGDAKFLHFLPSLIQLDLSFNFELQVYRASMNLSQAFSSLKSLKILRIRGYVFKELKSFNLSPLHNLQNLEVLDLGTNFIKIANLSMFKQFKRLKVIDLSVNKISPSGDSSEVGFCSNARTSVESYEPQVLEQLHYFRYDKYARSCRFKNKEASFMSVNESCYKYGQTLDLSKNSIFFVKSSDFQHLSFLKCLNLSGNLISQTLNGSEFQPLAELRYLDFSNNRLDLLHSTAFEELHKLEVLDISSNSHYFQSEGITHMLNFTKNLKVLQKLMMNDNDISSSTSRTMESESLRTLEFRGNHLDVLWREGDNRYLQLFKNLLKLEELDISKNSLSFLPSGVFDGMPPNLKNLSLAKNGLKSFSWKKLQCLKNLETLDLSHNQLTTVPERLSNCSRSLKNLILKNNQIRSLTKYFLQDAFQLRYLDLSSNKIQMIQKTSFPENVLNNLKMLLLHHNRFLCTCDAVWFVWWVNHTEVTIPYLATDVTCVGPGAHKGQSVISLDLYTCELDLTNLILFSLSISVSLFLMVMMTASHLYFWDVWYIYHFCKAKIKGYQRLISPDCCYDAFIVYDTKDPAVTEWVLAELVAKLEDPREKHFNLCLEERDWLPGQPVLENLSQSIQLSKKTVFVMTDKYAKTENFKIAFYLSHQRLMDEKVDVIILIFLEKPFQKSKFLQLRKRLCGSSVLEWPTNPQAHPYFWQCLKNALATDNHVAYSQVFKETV

Row | Compound | EC50 [1] | cytokine induction of IL-1β compared to R-848 [2] | cytokine induction of IL-5 compared to peanut oil-control [2] | cytokines induced compared to peanut oil-control [2]
1 | COc1ccc(CCc2cnc3c(N)nc4cc(C(C)(P(=O)(O)O)P(=O)(O)O)ccc4c3c2)c(C)c1 [Compound 19] | 23800 nM |  |  | 
2 | COc1ccc(CCc2cnc3c(N)nc4cc(C)ccc4c3c2)c(C)c1 [SMIP 28, 2-(4-methoxy-2-methylphenethyl)-8-methylbenzo[f][1,7]naphthyridin-5-amine] |  | significantly greater cytokine induction of IL-1β | Neither administration of SMIP 28 nor R-848, compared to peanut oil-control, resulted in a cytokine induction of IL-5 | cytokine induction of IFN-γ, IL-12 p40, IL-1β, IL-6, MCP-1, mKC, and TNF-α
3 | CCOCc1nc2c(N)nc3ccccc3c2n1CC(C)(C)O [R-848, resiquimod, reference compound] |  |  | Neither administration of SMIP 28 nor R-848, compared to peanut oil-control, resulted in a cytokine induction of IL-5 | cytokine induction of IFN-γ, IL-10, IL-12 p40, IL-6, MCP-1, mKC, and TNF-α
